According to patent US10676470B2, “Inhibitors of lysine gingipain” (priority 2014, dated 2020):
Entries after “also recorded” stand apart in the source; their conditions may differ.

Columns and labels:
[1] = tested on: differentiated SHSY-5Y cells; assay: Gingipain-induced death of differentiated SH-SY5Y cells; type: cell-based; conditions: 100 nM Kgp and/or RgpB for 24 hours
Procedure: SH-SY5Y neuroblastoma cells were cultured and differentiated in the presence of 5 uM retinoic acid based on established methods [Saberi S., et al. Cell Mol Neurobiol 2013. 33: 747-751]. Differentiation into neuronal cells was verified by observation of neurite outgrowth. The differentiated cells were exposed to 100 nM Kgp and/or RgpB for 24 hours, in the presence or absence of Kgp inhibitors. Results were recorded using a digital microscope camera (FIG. 1C, FIG. 2C). Gingipains are toxic to cells while COR compounds prevent the cytotoxicity.

[2] = tested on: abeta 42; assay: Brain abeta 42 ELISA in mice orally infected with P. gingivalis; type: in vivo; conditions: Balb/cJ mice, oral W83 P. gingivalis for 42 days; compound subcutaneously three times per day on days 21-42
Description: Female Balb/cJ mice were obtained from Taconic and allowed to acclimate. 43-44 week old mice were challenged orally with 10^9 CFU W83 P. gingivalis or a P. gingivalis strain lacking expression of Kgp every other day for 42 days. Compound 2 or vehicle (2% DMSO) was given subcutaneously three times per day on days 21-42. On day 42 mice were sacrificed and the brain removed and frozen. A sample including hippocampal tissue was lysed in RIPA buffer with protease inhibitors and analyzed for Abeta42 expression with the Amyloid beta 42 ELISA Kit, Mouse (Life Technologies).

[3] = tested on: SHSY5Y cells; assay: P. gingivalis-induced toxicity in SHSY5Y cells; type: cell-based; conditions: SHSY5Y cells in vitro, compared to the antibiotic moxifloxacin
[4] = molecular target: lysine gingipain (Kgp) (Porphyromonas gingivalis (strain ATCC 33277 / DSM 20709 / CIP 103683 / JCM 12257 / NCTC 11834 / 2561), UniProt B2RLK2); assay: Fluorogenic lysine gingipain inhibition assay; type: biochemical; conditions: 0.1 nM Kgp, 10 uM Z-His-Glu-Lys-MCA, 90 minutes, 37° C., pH 7.5
Procedure: The capacities of compounds of the present invention to inhibit the activity of lysine gingipain were measured in a fluorogenic assay similar to those described in Barret Biochemical Journal. 1980, 187(3), 909. The specific assay conditions were as follows. Buffer: pH=7.5, 100 mM Tris-HCl, 75 mM NaCl, 2.5 mM CaCl2, 10 mM cysteine, 1% DMSO after all additions. Protein: 0.1 nM Kgp, isolated from culture of Porphyromonas gingivalis, as described in Pike et al. J. Biol. Chem. 1994, 269(1), 406, and Potempa and Nguyen. Current Protocols in Protein Scienc. 2007, 21.20.1-21.20.27. Fluorogenic substrate: 10 uM Z-His-Glu-Lys-MCA. Time=90 minutes. Temperature=37° C. Each compound: 10 concentrations, starting at either 100 uM or 100 nM, with lower concentrations generated by serial 3-fold dilutions. By testing a range of concentrations for each compound, the concentration required to inhibit the activity of lysine gingipain by 50% (the “IC50”) was determined. Under the described assay conditions, signal-to-noise was excellent, and Z factor was greater than 0.6.
The inhibitory of activity of compounds described herein was tested against Kgp, RgpB, and trypsin.

| SMILES | prevention of gingipain-induced cell death [1] | also measured |
| --- | --- | --- |
| NCCCC[C@H](NC(=O)C1CCCCC1)C(=O)c1nc2ccccc2s1 [Compound 2, N-[(1S)-5-amino-1-(1,3-benzothiazole-2-carbonyl)pentyl]cyclohexanecarboxamide] | prevents gingipain-induced death; also recorded: more effective; also recorded: effective at preventing cell death | brain levels of abeta 42 (ELISA) [2]: resolved; also recorded: increase in abeta42 that was not apparently |
| NCCCC[C@H](NC(=O)C1CCCC1)C(=O)COc1c(F)c(F)cc(F)c1F [Compound 43, N-[(1S)-5-amino-1-[2-(2,3,5,6-tetrafluorophenoxy)acetyl]pentyl]cyclopentanecarboxamide] | – | protection from P. gingivalis-induced toxicity [3]: protects SHSY5Y cells from P. gingivalis-induced toxicity |
| NCCCC[C@H](NC(=O)c1ccccc1)C(=O)c1nc2ccccc2s1 [Compound 1, N-[(1S)-5-amino-1-(1,3-benzothiazole-2-carbonyl)pentyl]benzamide] | prevents gingipain-induced death; also recorded: effective at preventing cell death | – |
| NCCCC[C@H](NC(=O)[C@@H]1CCCN(C(=O)CCc2ccccc2)C1)C(=O)c1nc2ccccc2s1 [Compound 4, (3R)—N-[(1S)-5-amino-1-(1,3-benzothiazole-2-carbonyl)pentyl]-1-(3-phenylpropanoyl)piperidine-3-carboxamide] | prevents gingipain-induced death | prevention of gingipain-induced cell death ([1]; listed as 2-(N—[N-(3-phenylpropanoyl)-(R)-nipecotinyl]-(R)-lysinyl)-benzothiazole): effective at preventing cell death; IC50 [4]: 1 to 10 nM |
| NCCCC[C@H](NC(=O)[C@H]1CCCN(C(=O)CCc2ccccc2)C1)C(=O)c1nc2ccccc2s1 [Compound 3, (3S)—N-[(1S)-5-amino-1-(1,3-benzothiazole-2-carbonyl)pentyl]-1-(3-phenylpropanoyl)piperidine-3-carboxamide] | does not | – |
